Test results published in PubChem BioAssay AID248 (DTP/NCI, 2004).
Toxic doses and inconclusive results are not listed. Rule as the data show it: active = T/C of 150% or more; inactive = T/C below 125%.

System: L1210 leukemia ip in BDF1 mice, survival T/C
Test: NCI In Vivo Anticancer Drug Screen. Data for tumor model L1210 Leukemia (intraperitoneal) in B6D2F1 (BDF1) mice
Details: endpoint: mean survival time, higher = longer survival
Procedure, shortened: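 Value reflects the ratio of survival in compound-treated mice to survival in vehicle-treated controls, with both groups carrying the same transplanted tumor.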

[1] = dose: 50.0 mg/kg/injection, schedule: Q01DX009 (ip), vehicle: Klucel (hydroxypropylcellulose) (HPC)
[2] = dose: 100.0 mg/kg/injection, schedule: Q01DX009 (ip), vehicle: Klucel (hydroxypropylcellulose) (HPC)
[3] = dose: 200.0 mg/kg/injection, schedule: Q01DX009 (ip), vehicle: Klucel (hydroxypropylcellulose) (HPC)
[4] = dose: 100.0 mg/kg/injection, schedule: Q04DX002 (ip), vehicle: saline
[5] = dose: 100.0 mg/kg/injection, schedule: Q04DX003 (ip), vehicle: saline with Tween-80
[6] = dose: 100.0 mg/kg/injection, schedule: Q04DX003 (ip), vehicle: Klucel (hydroxypropylcellulose) (HPC)
[7] = dose: 200.0 mg/kg/injection, schedule: Q04DX003 (ip), vehicle: Klucel (hydroxypropylcellulose) (HPC)
[8] = dose: 400.0 mg/kg/injection, schedule: Q04DX003 (ip), vehicle: Klucel (hydroxypropylcellulose) (HPC)
[9] = dose: 100.0 mg/kg/injection, schedule: Q04DX003 (ip), vehicle: saline
[10] = dose: 100.0 mg/kg/injection, schedule: Q01DX001 (ip), vehicle: carboxymethylcellulose (CMC)
[11] = dose: 200.0 mg/kg/injection, schedule: Q01DX001 (ip), vehicle: carboxymethylcellulose (CMC)
[12] = dose: 400.0 mg/kg/injection, schedule: Q01DX001 (ip), vehicle: carboxymethylcellulose (CMC)

Measured: T/C

COC(=O)C1C2CC(C3OC23)C1C(=O)OC (stereo unspecified)
inactive: dose: 100.0 mg/kg/injection, schedule: Q01DX009 (ip), vehicle: other 110 % of control | dose: 200.0 mg/kg/injection, schedule: Q01DX009 (ip), vehicle: other 108 % of control | dose: 400.0 mg/kg/injection, schedule: Q01DX009 (ip), vehicle: other 93 % of control

CC1=NC(C)(C)C(C)=C1C
inactive: dose: 25.0 mg/kg/injection, schedule: Q04DX002 (ip), vehicle: saline with Tween-80 91 % of control | dose: 50.0 mg/kg/injection, schedule: Q04DX002 (ip), vehicle: saline with Tween-80 94 % of control | dose: 100.0 mg/kg/injection, schedule: Q04DX002 (ip), vehicle: saline with Tween-80 91 % of control

O=[N+]([O-])/C=C/c1ccc2ccccc2c1
inactive: dose: 12.5 mg/kg/injection, schedule: Q01DX009 (ip), vehicle: carboxymethylcellulose (CMC) 104 % of control | dose: 25.0 mg/kg/injection, schedule: Q01DX009 (ip), vehicle: carboxymethylcellulose (CMC) 101 % of control | [1] 107 % of control | dose: 50.0 mg/kg/injection, schedule: Q01DX009 (ip), vehicle: carboxymethylcellulose (CMC) 100 % of control | dose: 100.0 mg/kg/injection, schedule: Q01DX001 (ip), vehicle: other 100 % of control | [2] 104 % of control | dose: 100.0 mg/kg/injection, schedule: Q01DX009 (ip), vehicle: carboxymethylcellulose (CMC) 101 % of control | dose: 200.0 mg/kg/injection, schedule: Q01DX001 (ip), vehicle: other 91 % of control | [3] 93 % of control | dose: 400.0 mg/kg/injection, schedule: Q01DX001 (ip), vehicle: other 96 % of control

N#CS.[Tl]
inactive: dose: 9.5 mg/kg/injection, schedule: Q01DX001 (ip), vehicle: carboxymethylcellulose (CMC) 92 % of control | dose: 19.0 mg/kg/injection, schedule: Q01DX001 (ip), vehicle: carboxymethylcellulose (CMC) 103 % of control | dose: 38.0 mg/kg/injection, schedule: Q01DX001 (ip), vehicle: carboxymethylcellulose (CMC) 105 % of control

CCCCCOC(=O)C1OC1(CC)c1ccccc1 (stereo unspecified)
inactive: [4] 97 % of control | dose: 200.0 mg/kg/injection, schedule: Q04DX002 (ip), vehicle: saline 101 % of control | dose: 400.0 mg/kg/injection, schedule: Q04DX002 (ip), vehicle: saline 120 % of control

NC(CC(=O)O)c1nn[nH]n1 (stereo unspecified)
inactive: dose: 100.0 mg/kg/injection, schedule: Q01DX009 (ip), vehicle: saline with Tween-80 102 % of control | [5] 105 % of control | dose: 200.0 mg/kg/injection, schedule: Q01DX009 (ip), vehicle: saline with Tween-80 98 % of control | dose: 200.0 mg/kg/injection, schedule: Q04DX003 (ip), vehicle: saline with Tween-80 102 % of control | dose: 400.0 mg/kg/injection, schedule: Q04DX003 (ip), vehicle: saline with Tween-80 103 % of control

CC(=O)C1CCC2C3=CC=C4CC(O)CCC4(C)C3=CCC12C (stereo unspecified)
inactive: [6] 96 % of control | [7] 93 % of control | [8] 93 % of control

CC(=O)[C@H]1CC[C@H]2[C@@H]3C[C@H](C)C4=CC(=O)CC[C@]4(C)[C@H]3[C@@H](O)C[C@]12C
inactive: dose: 50.0 mg/kg/injection, schedule: Q01DX009 (ip), vehicle: saline 100 % of control | dose: 50.0 mg/kg/injection, schedule: Q01DX Z (sc), vehicle: steriod suspending solution 106 % of control | dose: 50.0 mg/kg/injection, schedule: Q04DX003 (ip), vehicle: saline 95 % of control | dose: 100.0 mg/kg/injection, schedule: Q01DX001 (ip), vehicle: saline 93 % of control | dose: 100.0 mg/kg/injection, schedule: Q01DX009 (ip), vehicle: saline 94 % of control | dose: 100.0 mg/kg/injection, schedule: Q01DX Z (sc), vehicle: steriod suspending solution 103 % of control | [9] 103 % of control | dose: 200.0 mg/kg/injection, schedule: Q01DX001 (ip), vehicle: saline 104 % of control | dose: 200.0 mg/kg/injection, schedule: Q01DX009 (ip), vehicle: saline 102 % of control | dose: 200.0 mg/kg/injection, schedule: Q01DX Z (sc), vehicle: steriod suspending solution 103 % of control | dose: 200.0 mg/kg/injection, schedule: Q04DX003 (ip), vehicle: saline 102 % of control | dose: 400.0 mg/kg/injection, schedule: Q01DX Z (sc), vehicle: steriod suspending solution 98 % of control

CNCCN(C)CCN(C)Cc1ccc(OC)cc1
inactive: dose: 25.0 mg/kg/injection, schedule: Q01DX009 (ip), vehicle: water 105 % of control | dose: 50.0 mg/kg/injection, schedule: Q01DX009 (ip), vehicle: water 102 % of control | dose: 100.0 mg/kg/injection, schedule: Q01DX009 (ip), vehicle: water 100 % of control | dose: 200.0 mg/kg/injection, schedule: Q01DX009 (ip), vehicle: water 107 % of control

NC(=O)CN1C(=O)C2C3CCC(O3)C2C1=O (stereo unspecified)
inactive: dose: 25.0 mg/kg/injection, schedule: Q04DX003 (ip), vehicle: saline with Tween-80 89 % of control | dose: 50.0 mg/kg/injection, schedule: Q04DX003 (ip), vehicle: saline with Tween-80 89 % of control | [5] 96 % of control | [9] 107 % of control | dose: 400.0 mg/kg/injection, schedule: Q04DX003 (ip), vehicle: saline 95 % of control

O=NN(Cc1ccccc1)NC(=O)c1ccccc1
inactive: dose: 100.0 mg/kg/injection, schedule: Q04DX002 (ip), vehicle: gum acacia 96 % of control | dose: 200.0 mg/kg/injection, schedule: Q04DX002 (ip), vehicle: gum acacia 104 % of control

O=C(O)/C=C/c1nc2ccccc2c(=O)[nH]1
inactive: [1] 114 % of control | [2] 100 % of control

O=S(=O)(O)SCCCNCCCNCCCSS(=O)(=O)O
inactive: dose: 9.37 mg/kg/injection, schedule: Q01DX009 (ip), vehicle: saline 88 % of control | dose: 18.75 mg/kg/injection, schedule: Q01DX009 (ip), vehicle: saline 87 % of control | dose: 37.5 mg/kg/injection, schedule: Q01DX009 (ip), vehicle: saline 93 % of control | dose: 37.5 mg/kg/injection, schedule: Q04DX003 (ip), vehicle: saline 98 % of control | dose: 75.0 mg/kg/injection, schedule: Q01DX001 (ip), vehicle: saline 102 % of control | dose: 75.0 mg/kg/injection, schedule: Q04DX003 (ip), vehicle: saline 93 % of control | dose: 150.0 mg/kg/injection, schedule: Q01DX001 (ip), vehicle: saline 96 % of control

Brc1ccc2c(c1)-c1ccccc1C1=NCCN12
inactive: dose: 5.0 mg/kg/injection, schedule: Q01DX009 (ip), vehicle: Klucel (hydroxypropylcellulose) (HPC) 100 % of control | dose: 10.0 mg/kg/injection, schedule: Q01DX009 (ip), vehicle: Klucel (hydroxypropylcellulose) (HPC) 101 % of control | dose: 20.0 mg/kg/injection, schedule: Q04DX003 (ip), vehicle: Klucel (hydroxypropylcellulose) (HPC) 86 % of control

Cc1cccc(Cl)c1NC(=O)Nc1onc(C)c1C
inactive: [2] 103 % of control | [3] 100 % of control | dose: 400.0 mg/kg/injection, schedule: Q01DX009 (ip), vehicle: Klucel (hydroxypropylcellulose) (HPC) 92 % of control

CCCCCCCCCCC(C1CCCC2CCCCC21)C1CCCC2CCCCC21 (stereo unspecified)
inactive: [10] 100 % of control | [11] 102 % of control | [12] 94 % of control

CN(C)c1ccc(C=O)cc1[N+](=O)[O-]
inactive: [1] 94 % of control | [2] 97 % of control | [6] 97 % of control | [3] 100 % of control | [7] 92 % of control | [8] 100 % of control

N#CC(Nc1cc(=O)[nH]c(=O)[nH]1)c1ccccc1 (stereo unspecified)
inactive: dose: 100.0 mg/kg/injection, schedule: Q04DX002 (ip), vehicle: Klucel (hydroxypropylcellulose) (HPC) 105 % of control | dose: 200.0 mg/kg/injection, schedule: Q04DX002 (ip), vehicle: Klucel (hydroxypropylcellulose) (HPC) 108 % of control

CNC1CC2CCC1(C)C2(C)C (stereo unspecified)
inactive: [4] 96 % of control

COCC(O)C(OC)C(OC)C(C=O)NC(=O)NCCCl (stereo unspecified)
inactive: dose: 100.0 mg/kg/injection, schedule: Q01DX001 (ip), vehicle: Klucel (hydroxypropylcellulose) (HPC) 102 % of control | dose: 200.0 mg/kg/injection, schedule: Q01DX001 (ip), vehicle: Klucel (hydroxypropylcellulose) (HPC) 103 % of control | dose: 400.0 mg/kg/injection, schedule: Q01DX001 (ip), vehicle: Klucel (hydroxypropylcellulose) (HPC) 100 % of control

CC(=O)Nc1ccc2c(c1)-c1ccc(F)cc1C2=O
inactive: [10] 96 % of control | [11] 103 % of control | [12] 89 % of control
